Reference: US10426772B2, “Use of ergot alkaloids as an anthelmintic agent” (priority 2016, dated 2019)

How the values were obtained:
Sm.5HTRL = Sm.5HTRL (Schistosoma mansoni, UniProt A0A173FEI8); assay: GloSensor cAMP assay, HEK293 cells transiently transfected with Sm.5HTRL; type: cell-based
Protocol: (§1) HEK293 cells (ATCC CRL-1573.3) were cultured in DMEM supplemented with 10% fetal bovine serum (FBS), penicillin (100 units/mL), streptomycin (100 μg/mL), and L-glutamine (290 μg/mL). Cells were transiently transfected (ViaFect, Promega) as per the manufacturer's protocol at a density of 2×10^6 cells per T-25 cell-culture flask. Cells were transfected with plasmids encoding GloSensor (Promega) and either Sm.5HTR, (Smp_126730, GenBank accession number KF444051.1) or Sm.5HTRL (KX150867), both GPCRs being codon optimized for mammalian expression, or Hs.5HT7a (GenBank accession number NM_000872.4, R&D Systems) subcloned into pCS2(−). Cell culture reagents were from Invitrogen. Epitope tagged constructs were used to verify expression, and untagged constructs used for all luminescence assays.
(§2) For assays performed on adherent cells, HEK-293 cells were transferred one day post transfection to 96 well, solid white plates (Corning, cat #3917) coated with 0.01% poly-L-lysine (Sigma Aldrich) at a density of 5×10^4 cells/well in DMEM supplemented with 1% dialyzed FBS (Gibco). After overnight culture (37° C./5% CO2), media was decanted and replaced with 100 μL/well HBSS supplemented with 0.1% BSA, 20 mM HEPES (pH 7.4) and GloSensor™ reagent. Plates were allowed to equilibrate at room temperature for two hours prior to performing luminescence assays (GloMax-Multi Detection System plate reader, Promega). Conditions for individual assays were described as per figure legends. The standard assay to detect changes in cAMP utilized the F22 sensor in media supplemented with IBMX (200 μM). Ligands were added at a concentration of 20× per well for experiments (i.e., 5 μl of drug solution added to 100 μL of cells). […] For the resazurin reduction assay for cellular viability, cells were incubated with resazurin (final concentration, 10 μM) and tested ligands with fluorescence measurements (560 nm excitation/590 nm emission) made at 1.5 hours intervals.

adult S. mansoni = assay: Movement assay of cultured adult S. mansoni (Example 2); type: cell-based; details: Schistosoma mansoni; for IC50: read-out: IC50, inhibition of serotonin evoked schistosome movement
Excerpt: (§3) Female Swiss Webster mice infected with S. mansoni cerceria (NMRI strain) were sacrificed 49 days post infection by CO2 euthanasia. Adult schistosomes were recovered by perfusion with a solution of 0.85% sodium chloride+0.75% sodium citrate and dissection of the mesenteric vasculature. Harvested schistosomes were washed in RPMI 1640 Medium with GlutaMAX+5% heat inactivated FBS (Gibco) and Penicillin-Streptomycin (final concentration 100 units/mL, ThermoFisher cat #15140122).
For movement assays, worms were cultured 37° C./5% CO2 in vented 100×25 mm petri dishes (ThermoFisher cat #4031) containing 50 mL of media and used between 1-3 days after harvesting. Prior to assessing worm movement, individuals were transferred to a six well dish (4-5 individuals per well) containing 3 mL drug solution in RPMI 1640 supplemented with HEPES (25 mM) and MS (5%). Videos were recorded using a Zeiss Discovery v20 stereomicroscope and a QiCAM 12-bit cooled color CCD camera controlled by metamorph imaging software (version 7.8.1.0). 1 minute recordings were acquired at 4 frames per second, saved as a .TIFF stack, and movement was analyzed using ImageJ software as described in (PMID: 27187180, PMID: 27397763).

adult schistosomes = assay: Egg laying assay, adult schistosome pairs in vitro; type: cell-based, Schistosoma mansoni; details: serotonin 100 μM, forskolin 100 μM, LSD 10 μM, nuciferine 10 μM, ergotamine 5 μM (FIG. 19F); eggs per worm pair/day over five days
Excerpt: as §3
For egg laying assays, adult schistosomes were transferred to 24 well plates the day after harvesting from mice (5 worm pairs in 2 mL media per well). Eggs were counted under a stereomicroscope daily, after which worms were transferred to a new well with fresh drug containing media. Egg counts were recorded for five days, and data processed as the mean number of eggs laid per worm pair/day. Measurements of egg dimensions were quantified using the “analyze>measure” function in ImageJ to record the length and width of individual eggs.

Sm.5HTR [1] = biological target: Sm.5HTR (Schistosoma mansoni, UniProt A0A173FEI8); assay: cell-based
Protocol: HEK293 cells (ATCC CRL-1573.3) were cultured in growth media consisting of DMEM supplemented with GlutaMAX (Gibco cat #10566016)+10% heat inactivated fetal bovine serum and penicillin-streptomycin (100 units/mL, ThermoFisher). Stable cell lines for the pGloSensor-22F cAMP Plasmid (Promega) and schistosome 5HTRs in pcDNA3.1(−) were selected with hygromycin (200 μg/mL) and G418 (400 μg/mL). The correct identity of each stably expressed sequence was verified by isolating total RNA from each stable line (TRIzol Reagent, Ambion) and amplifying the sequence of interest with gene specific primers flanking the 5′ and 3′ regions of the cds (SuperScript® III One-Step RT-PCR System, Invitrogen). PCR products were ligated into a TA cloning vector (pGEM-T Easy, Promega) and sequenced.
HEK293 lines stably expressing both the 22F cAMP sensor and Sm.5HTR were cultured in growth media supplemented with 10% dialyzed FRS. For cAMP assays in 96 well format, cells cultured in T-75 flasks were trypsinized (TrypLE Express, Gibco) and plated in solid white 96 well plates (Costar cat #3917) the day prior to assay at a density of 2.5×10^4 cells/well. The following day media was removed and replaced with assay buffer consisting of HBSS buffered with HEPES (20 mM, pH 7.4)+BSA (0.1% w/v) and D-luciferin sodium salt (1 mg/mL, Gold Biotechnology). Plates were equilibrated at room temperature for 1 hour, at which point 3-Isobutyl-1-methylxanthine (IBMX 200 μM, Sigma Aldrich) was added. Plates were equilibrated a further 30 minutes prior to test compound addition. […] Readings performed in 384 well format were modified so that cells were assayed in suspension. Cells were grown to 70% confluence in T-75 flasks, trypsinized and pelleted (300 RCF×5 minutes). Media was removed and cells were resuspended in 25 mL assay buffer supplemented with IBMX (200 μM). A 96 channel semi-automated pipet (Eppendorf epMotion 96) delivered 55 μL of cell suspension per well (5000 cells/well) into solid white 384 plates (Corning 3574).

Sm.5HTR [2] = biological target: T1, Sm.5HTR (Schistosoma mansoni, UniProt G4V5G4); type: cell-based
Protocol: as §1, §2
(§4) The protocol for screening is shown schematically in FIG. 5A. HEK293 cells transiently transfected with either the human 5HT7 receptor (Hs.5HT7R) or the schistosome receptor (Sm.5HTR) were exposed to test ligands in a 96-well plate format. […] Luminescence was then read at a fixed time point (t=60 minutes, FIG. 5A). Hits were assigned as compounds that evoked a ≥50% decrease in luminescence output at the fixed time sampling point (FIG. 5B).

Hs.5HT7R = biological target: T2, Hs.5HT7R (Homo sapiens, UniProt P34969); assay: GloSensor cAMP assay, HEK293 cells transiently transfected with Hs.5HT7R; type: cell-based; details: inhibition of cAMP generation
T2 construct: host or cells: HEK293 (ATCC CRL-1573.3), transient, pCS2(−), co-transfected with GloSensor
Protocol: as §1, §2, §4

[3] = test system: S. mansoni schistosomules; assay: Schistosomule contractility assay; type: cell-based; details: Schistosoma mansoni, read-out: IC50, inhibition of 5-HT evoked contractions
Protocol: FIGS. 14A-14F. […] Effects of selected ligands on schistosomules. […] A contractile cycle is defined when a deviation of ≥20% of the average body length (dashed lines) occurs.
Biomphalaria glabrata (M-line) snails exposed to Schistosoma mansoni miracidia (Strain PR-1) were obtained from BEI Resources (Cat. number NR-21961) and cercaria were shed following exposure to light (1.5 hours). Cercaria were manually transformed into schistosomula by vortexing (3×45 seconds, each separated by 3 minutes on ice) and tails were removed by gradient centrifugation (24 mL Percoll, 4 mL 10×EMEM, 1.5 ml penicillin-streptomycin, 1 mL of 1M HEPES in 0.85% NaCl, 9.5 ml distilled water) at 500 g/15 minutes at 4° C. Supernatant containing tails was discarded, and schistosomules were resuspended in Basch media and incubated (37° C., 5% CO2) overnight before conducting mobility assays. For contractility experiments, somules were incubated in 5-HT free Basch media to resolve a basal contractility rate. […] Schistosomules were incubated in 24 well plates (about 200 schistosomules/0.5 mL media per well) for 30 minutes (37° C./5% CO2) prior to acquiring videos of schistosome movement (1 minute recordings/well) using a Nikon Coolpix 5700 camera affixed to a Nikon Eclipse TS100 microscope (10× objective). The WrmTrck plugin for ImageJ was used to quantify worm mobility (El-Shehabi et al., 2012). Briefly, the major axis of each schistosomule body length was extracted from the raw output of WrmTrck and an average length was determined for the duration of the recording. Contractions were quantified by determining the number of episodes during which the worm body length deviated from the average by over 20%. S. mansoni protocols were approved by the Iowa State University Institutional Biosafety Committee.

S. mansoni = assay: Hepatic shift assay in infected mice; type: in vivo, Schistosoma mansoni; details: intraperitoneal, ergotamine 95, praziquantel 100, methylergometrine 50, lisuride 10, dihydroergotoxine 60 mg/kg, euthanized three hours later
Protocol: Female Swiss Webster mice were exposed to 200 S. mansoni cerceria (NMRI strain) at between 4-6 weeks old. For hepatic shift assays, infections were allowed to mature to 7 weeks, at which point mice were given test compounds by intraperitoneal injection and euthanized […]. Compounds were solubilized in 50 μL DMSO, and diluted in 200 μL 5% w/v trappsol (Cyclodextrin Technologies Development, THPB-p-31 g)+saline (NaCl 0.9%) solution. Immediately after being euthanized, mice were dissected to remove the liver from the portal vein, and the number of worms recovered from the portal vein, mesenteries and liver was recorded for each mouse.
Several experiments using a murine model of schistosomiasis were carried out in order to test the anthelmintic efficacy of Sm.5HTR ligands in vivo. First, the acute effect of drugs were assessed using a “heptic-shift” assay; mature parasites normally reside within the mesenteric vasculature, and upon exposure to anthelmintics they dislodge and are swept to the liver^12,13 where they may be cleared from the host^14 (FIG. 20B-F).
Given that the current anthelmintic therapy, praziquantel, disrupts worms and results in a rapid shift from the mesenteric vasculature to the liver (Melhorn et al., 1981) (FIG. 20B-F), it was hypothesized that Sm.5HTR ligands that disrupt parasite movement would cause a similar hepatic shift. Compounds were delivered by intraperitoneal injection and mice were euthanized three hours later in order to quantify the number of worms found in the mesentaries, portal vein or liver.

Sm.5HTR [4] = biological target: T1, Sm.5HTR; type: cell-based; details: 10 μM for 30 minutes, washout, 5-HT response 1 hour later (FIGS. 11B-D)
Protocol: Colors correspond to drug identity in C&D. Data represent mean±s.e.m., n=3 (C-E).
To test putative irreversible antagonists, assays on suspension cells were performed one day post transfection. Cells in a T-75 flask were trypsinized (0.25% w/v) and transferred to a 14 mL tube, centrifuged at 300 RCF, and resuspended in HBSS supplemented with 0.1% BSA, 20 mM HEPES. Compounds were added at 10 μM, and after 30 minutes incubation at room temperature cells were centrifuged (300 RCF, 5 minutes) and resuspended in fresh media. This wash step was repeated, and cells were resuspended in HBSS supplemented with 0.1% BSA, 20 mM HEPES and GloSensor reagent. […]

Chain of Sm.5HTR (Schistosoma mansoni, UniProt A0A173FEI8) (A0A173FEI8 entry or part of it): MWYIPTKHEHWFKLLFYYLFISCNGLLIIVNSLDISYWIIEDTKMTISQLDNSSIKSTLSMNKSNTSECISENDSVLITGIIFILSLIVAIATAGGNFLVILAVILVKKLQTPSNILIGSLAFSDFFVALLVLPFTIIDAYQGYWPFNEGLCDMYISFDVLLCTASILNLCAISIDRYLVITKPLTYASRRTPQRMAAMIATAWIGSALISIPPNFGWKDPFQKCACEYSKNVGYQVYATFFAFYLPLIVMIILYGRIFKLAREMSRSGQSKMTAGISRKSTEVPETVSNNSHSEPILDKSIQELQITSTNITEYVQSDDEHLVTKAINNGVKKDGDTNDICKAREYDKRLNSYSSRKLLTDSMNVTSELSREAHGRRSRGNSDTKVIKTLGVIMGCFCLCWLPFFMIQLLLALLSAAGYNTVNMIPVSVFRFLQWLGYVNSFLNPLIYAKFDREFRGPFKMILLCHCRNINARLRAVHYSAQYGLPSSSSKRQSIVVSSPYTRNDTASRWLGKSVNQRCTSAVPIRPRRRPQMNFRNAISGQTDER
T1 sequence (G4V5G4 entry or part of it): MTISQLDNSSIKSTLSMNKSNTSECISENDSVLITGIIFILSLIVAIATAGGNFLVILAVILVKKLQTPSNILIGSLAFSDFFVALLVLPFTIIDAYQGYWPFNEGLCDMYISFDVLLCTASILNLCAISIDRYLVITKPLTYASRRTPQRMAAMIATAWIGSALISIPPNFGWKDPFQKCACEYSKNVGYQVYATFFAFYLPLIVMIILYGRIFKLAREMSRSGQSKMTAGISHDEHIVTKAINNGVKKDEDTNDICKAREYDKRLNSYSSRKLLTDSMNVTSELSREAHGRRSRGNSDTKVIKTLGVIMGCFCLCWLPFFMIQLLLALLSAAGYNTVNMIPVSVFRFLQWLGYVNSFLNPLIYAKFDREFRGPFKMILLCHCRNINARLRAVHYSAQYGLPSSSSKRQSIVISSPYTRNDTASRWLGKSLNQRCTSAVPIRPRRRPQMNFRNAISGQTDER
Chain of Sm.5HTRL (A0A173FEI8 entry or part of it): as the sequence (A0A173FEI8 entry or part of it) above
T2 sequence (P34969 1-445 isoform P34969-2): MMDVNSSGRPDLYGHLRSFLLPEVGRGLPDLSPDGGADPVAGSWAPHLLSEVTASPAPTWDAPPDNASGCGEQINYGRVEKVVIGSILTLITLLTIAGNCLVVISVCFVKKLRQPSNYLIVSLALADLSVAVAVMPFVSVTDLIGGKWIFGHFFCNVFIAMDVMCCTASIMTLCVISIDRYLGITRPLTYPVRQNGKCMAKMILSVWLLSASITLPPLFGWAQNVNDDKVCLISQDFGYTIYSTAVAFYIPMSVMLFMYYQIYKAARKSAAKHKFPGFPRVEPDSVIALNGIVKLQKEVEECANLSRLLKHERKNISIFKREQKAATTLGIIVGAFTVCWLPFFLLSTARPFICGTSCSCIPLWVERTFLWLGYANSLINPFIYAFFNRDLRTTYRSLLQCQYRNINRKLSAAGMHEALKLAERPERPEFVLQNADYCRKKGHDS

NCCc1c[nH]c2ccc(O)cc12 [5-HT, Serotonin]
EC50 (Sm.5HTRL; 5-HT dose response, FIG. 2H, read-out: EC50, activation of Sm.5HTRL): 200 ± 30 nM | greater sensitivity of Sm.5HTRL compared with Sm.5HTR (Sm.5HTRL; ratio of 5-HT EC50): about 10 fold | EC50 (adult S. mansoni; FIG. 19B, read-out: EC50, stimulation of adult schistosome movement): 52000 ± 2000 nM | decrease of egg laying (adult schistosomes): 83%

CCN(CC)C(=O)[C@@H]1C=C2c3cccc4[nH]c(Br)c(c34)C[C@H]2N(C)C1 [BOL-148, 2-bromo-lysergic acid diethylamide]
IC50 (Sm.5HTR [1]; 5-HT 500 nM, read-out: Sm.5HTR IC50 (antagonist)): 100 ± 20 nM | agonist activity at Sm.5HTR, in words (Sm.5HTR [1]; FIG. 18C): Agonist activity is eliminated | IC50 (adult S. mansoni): 29 ± 23 nM | decrease of egg laying (adult schistosomes): no effect

CC(C)C[C@H]1C(=O)N2CCC[C@H]2[C@]2(O)O[C@](NC(=O)[C@@H]3C=C4c5cccc6[nH]c(Br)c(c56)C[C@H]4N(C)C3)(C(C)C)C(=O)N12 [bromocriptine]
higher selectivity for the parasitic 5-HT receptor (Sm.5HTR [2]; Sm.5HTR over Hs.5HT7R): about 10 fold | potency (IC50) at Sm.5HTR, lower right quadrant of FIG. 13 (Sm.5HTR [2]; inhibition of cAMP generation): sub-μM potency | potency (IC50) at Hs.5HT7R, lower right quadrant of FIG. 13 (Hs.5HT7R): supra-μM potency | IC50 [3]: ≤ 1000 nM | IC50 (adult S. mansoni): 251 ± 67 nM

CCN(CC)C(=O)N[C@H]1C=C2c3cccc4[nH]cc(c34)C[C@H]2N(C)C1 [lisuride]
% of worm burden found in the liver (S. mansoni): no difference relative to control animals

CN1C[C@H](CNC(=O)OCc2ccccc2)C[C@@H]2c3cccc4c3c(cn4C)C[C@H]21 [metergoline]
agonist efficacy at Sm.5HTR, in words (Sm.5HTR [2]; FIG. 10A): no efficacy | Kb (Sm.5HTR [2]; antagonism of 5-HT evoked cAMP accumulation, FIG. 10F, read-out: affinity constants (KB), Schild regression analysis): 4530 nM | nature of antagonism: right-shift in the 5-HT dose-response relationship (Sm.5HTR [2]; increasing doses of ligand, FIGS. 10B-D): competitive antagonism | persistence of Sm.5HTR inhibition after antagonist wash-out (Sm.5HTR [4]): long-lasting inhibition

CSc1ccc2c(c1)C(N1CCN(C)CC1)Cc1ccccc1S2 (centres unmarked) [methiothepin]
antagonism of 5-HT stimulated cAMP generation (Sm.5HTR [2]; methiothepin 10 μM preincubation, 5-HT 10 μM, IBMX 200 μM (FIG. 2G)): antagonism of 5-HT stimulated cAMP generation | persistence of Sm.5HTR inhibition after antagonist wash-out (Sm.5HTR [4]): long-lasting inhibition

CC[C@@H](CO)NC(=O)[C@@H]1C=C2c3cccc4[nH]cc(c34)C[C@H]2N(C)C1 [methylergometrine]
Emax (Sm.5HTR [1]; HEK293, agonist read, 45 minutes, read-out: Sm.5HTR Emax): 50 ± 17% | % of worm burden found in the liver (S. mansoni): 50.6±28.5%

Cc1nc2n(c(=O)c1CCN1CCC(c3noc4cc(F)ccc34)CC1)CCCC2 [risperidone]
persistence of Sm.5HTR inhibition after antagonist wash-out (Sm.5HTR [4]): long-lasting inhibition
